The source of these data is patent US8207172B2 (Bayer Intellectual Property GmbH, priority 2004, dated 2012).

Structures can show the parent of a compound that is named as a salt. Where only a bound is given, the exact number is not on record here.

Experiment [1] has as its system A431 cells (human epidermoid carcinoma). The experiment in a line: In vitro tumor cell proliferation assay (Cell Titer-Glo luminescent cell viability), A431. In kind it is cell-based. The note with it: A-431, 72 h, 72 hours of drug exposure, ATP luminescence readout, read-out: IC50, anti-proliferative activity (inhibition of cell proliferation). The gist of the method:
(§1)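 Proliferation inhibition was measured as ATP-dependent luciferase signal after cells in RPMI with 10% FBS received test compound for 72 h at 37° C. Final concentrations spanned […] to 64 pM in 0.1% DMSO; IC50 values were derived.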

The subject of experiment [2] is BT474 (human breast carcinoma). The experiment in a line: In vitro tumor cell proliferation assay (Cell Titer-Glo luminescent cell viability), BT474. The format is cell-based. The note with it: BT-474, 72 h, BT474 cells, 72 hours of drug exposure, ATP luminescence readout, read-out: IC50, anti-proliferative activity (inhibition of cell proliferation). The gist of the method: as §1
A general note: Cellular ATP, detected with luciferase, serves as a proxy for viable cell number.

Regarding `Fc1ccc(Nc2ncnc3sc4c(c23)CCc2nn(CCN3CCCCC3)cc2-4)cc1Cl` [Example 11, N-(3-chloro-4-fluorophenyl)-2-(2-piperidin-1-ylethyl)-4,5-dihydro-2H-pyrimido[5′,4′:4,5]thieno[2,3-e]indazol-6-amine], the IC50 in experiment [1] and in experiment [2] was not above 5 µM throughout.

As for `CN1CCN(CCn2ncc3c2CCc2c-3sc3ncnc(Nc4ccc(OCc5cccc(Cl)c5)c(Cl)c4)c23)CC1` [Example 317, N-{3-chloro-4-[(3-chlorobenzyl)oxy]phenyl}-3-[2-(4-methylpiperazin-1-yl)ethyl]-4,5-dihydro-3H-pyrimido[5′,4′:4,5]thieno[2,3-e]indazol-6-amine trifluoroacetate], the results for the IC50 in experiment [1] and in experiment [2] were not above 5 µM and not above 1 µM, respectively.

In the case of `CN1CCN(CC(=O)N2CCC(n3cc4c(n3)CCc3c-4sc4ncnc(Nc5ccc(OCc6cccc(F)c6)c(Cl)c5)c34)CC2)CC1` [Example 224, N-{3-chloro-4-[(3-fluorobenzyl)oxy]phenyl}-2-{1-[(4-methylpiperazin-1-yl)acetyl]piperidin-4-yl}-4,5-dihydro-2H-pyrimido[5′,4′:4,5]thieno[2,3-e]indazol-6-amine], the IC50 in experiment [1] was not above 5 µM; in experiment [2], not above 1 µM.

`OCC(O)CN1CCC(CCn2cc3c(n2)CCc2c-3sc3ncnc(Nc4ccc(OCc5cccc(F)c5)c(Cl)c4)c23)CC1` (centres unmarked) [Example 257, 3-(4-{2-[6-({3-chloro-4-[(3-fluorobenzyl)oxy]phenyl}amino)-4,5-dihydro-2H-pyrimido[5′,4′:4,5]thieno[2,3-e]indazol-2-yl]ethyl}piperidin-1-yl)propane-1,2-diol]: the figures for the IC50 in experiment [1] and in experiment [2] were not above 5 µM and not above 1 µM, respectively.

In the case of `COCCN1CCN(CCn2ncc3c2CCc2c-3sc3ncnc(Nc4ccc(OCc5cccc(F)c5)c(Cl)c4)c23)CC1` [Example 265, N-{3-chloro-4-[(3-fluorobenzyl)oxy]phenyl}-3-{2-[4-(2-methoxyethyl)piperazin-1-yl]ethyl}-4,5-dihydro-3H-pyrimido[5′,4′:4,5]thieno[2,3-e]indazol-6-amine trifluoroacetate], the IC50 was not above 50 µM in experiment [1] and not above 1 µM in experiment [2].

For `CCc1nccn1CCn1cc2c(n1)CCc1c-2sc2ncnc(Nc3ccc(F)c(Cl)c3)c12` [Example 38, N-(3-chloro-4-fluorophenyl)-2-[2-(2-ethyl-1H-imidazol-1-yl)ethyl]-4,5-dihydro-2H-pyrimido[5′,4′:4,5]thieno[2,3-e]indazol-6-amine], the IC50 in experiment [1] and in experiment [2] was not above 5 µM in each case.

For `Clc1cc(Nc2ncnc3sc4c(c23)CCc2c-4cnn2CCN2CCOCC2)ccc1OCc1ccccn1` [Example 111, N-[3-chloro-4-(pyridin-2-ylmethoxy)phenyl]-3-(2-morpholin-4-ylethyl)-4,5-dihydro-3H-pyrimido[5′,4′:4,5]thieno[2,3-e]indazol-6-amine], the IC50 is not above 50 µM in experiment [1] and not above 1 µM in experiment [2].

Consider `CS(=O)(=O)CCNC(=O)Cn1ncc2c1CCc1c-2sc2ncnc(Nc3ccc(OCc4cccc(F)c4)c(Cl)c3)c12` [Example 204, 2-[6-({3-chloro-4-[(3-fluorobenzyl)oxy]phenyl}amino)-4,5-dihydro-3H-pyrimido[5′,4′:4,5]thieno[2,3-e]indazol-3-yl]-N-[2-(methylsulfonyl)ethyl]acetamide], for which the IC50 was not above 50 µM in experiment [1] and not above 1 µM in experiment [2].

Take `Fc1cccc(COc2ccc(Nc3ncnc4sc5c(c34)CCc3c-5cnn3CCCN3CCCC3)cc2Cl)c1` [Example 272]: the IC50 was not above 5 µM in experiment [1] and not above 1 µM in experiment [2].

As for `CN1CCN(C(=O)Cn2cc3c(n2)CCc2c-3sc3ncnc(Nc4ccc(OCc5cccc(F)c5)c(Cl)c4)c23)CC1` [Example 183, N-{3-chloro-4-[(3-fluorobenzyl)oxy]phenyl}-2-[2-(4-methylpiperazin-1-yl)-2-oxoethyl]-4,5-dihydro-2H-pyrimido[5′,4′:4,5]thieno[2,3-e]indazol-6-amine], the IC50 in experiment [1] was not above 5 µM; in experiment [2] it was not above 1 µM.
